Reference: patent US9096593B2, “Compounds and methods for kinase modulation, and indications therefor” (Plexxikon Inc., priority 2009, dated 2015)

Tested on: Osteoclast precursor cells
Test: Osteoclast differentiation assay (acid phosphatase readout)
Type: cell-based
Conditions: RANKL and M-CSF
Experimental: Further, an osteoclast differentiation assay is used to assess the efficacy of Fms inhibitors for treating bone disease such as osteoarthritis. On day 0, Osteoclast Medium BulletKit (Lonza catalog #PT-8001, containing Media, FBS, L-Glutamine, PenStrep, RANKL, and M-CSF) media is thawed and the FBS, L-glutamine and PenStrep from the kit is added to 100 mL of Osteoclast Precursor Basal medium to provide the Osteoclast Precursor Growth Medium (OPGM). This is warmed to 37° C. Osteoclast precursor cells (Lonza catalog #2T-110) frozen in cryovial are warmed to 37° C. and transferred to a 50 mL conical tube. The cryovial is rinsed with OPGM and added dropwise to the conical tube of cells with swirling, then the volume is adjusted to 20-30 mL with addition of OPGM. The cells are centrifuged at 200×g for 15 minutes at room temperature and all but approximately 3 mL of supernatant is removed to a new conical tube. The cells are suspended in the remaining supernatant and the volume is adjusted to 10-15 mL with OPGM added dropwise with swirling. […] The cells are resuspended in the remaining supernatant, counted, and the volume adjusted with an appropriate amount of OPGM to provide approximately 1×10^5 cells/mL. […] The absorbance of each well is read at 405 nm on Safire plate reader. The absorbance reading is plotted vs. concentration to provide the IC50 for each compound.

Compound: Clc1cnc2[nH]cc(Cc3ccc(NCc4ccc(Cl)nc4)nc3)c2c1 [Compound P-2003]
- IC50: < 100 nM
